From US20250339569A1, “CARBONIC ANHYDRASE IX LIGANDS” (priority 2021, published 2025)
Read-outs that look alike come from different tables or passages of the source.

Assays:
[1] = Plasma stability assay, mouse plasma; conditions: mouse plasma, 37°C, 24 h
[2] = Plasma stability assay, human plasma; conditions: 37°C
[3] = Biodistribution study (SPECT/CT) in SK-RC-52 tumor-bearing mice with or without gelofusine; assay type: in vivo, NMRI nude mice; conditions: female, NMRI nude, mouse, in vivo, iv, total radioactivity, peak tumor uptake, typical (conclusion)
Protocol: The effect on tumor uptake of prior injection of gelofusine for kidney protection was investigated in mice bearing the SK-RC-52 tumor. Biodistribution was evaluated using in vivo SPECT/CT imaging. Prior to the in vivo study the compounds (ligands) were initially radiolabeled with In-111 and the stability of radiolabeled compounds was evaluated in buffer at three different timepoints.
The study was performed in female NMRI nude mice (approximately 6 weeks of age) from Janvier Labs, France, housed up to 5 mice per cage.
The column was washed with 2 mL water, and then the final product was eluted from the column in EtOH solution (50%) • The sample was formulated in PBS to the final concentration of 150 MBq/mL and 5 nmol/mL.
SK-RC-52 cells were cultured in RPMI 1640 with GlutaMax-I (Thermo Fisher Scientific #61870044) supplemented with 10% fetal bovine serum+1% penicillin/streptomycin, harvested, washed twice in RPMI 1640 and resuspended at 2×10^7 cells/mL in RPMI 1640. HT-29 cells were cultured in McCoy's 5a Medium Modified (Sigma #M9309). For inoculation of HT-29 cells, cells were harvested, washed twice in PBS and resuspended at 5×10^7 cells/mL in PBS. Cells were kept on ice until inoculation.
Animals were anaesthetized (isoflurane, 2-4% in ambient air supplemented with 100% 02) prior to tumor inoculation. The tumor cells (100 μL suspension of either SK-RC-52 cells (2×10^6 cells/animal) or HT-29 cells (5×10^6 cells/animal)) were subcutaneously inoculated in the right flank using a 1-mL syringe equipped with a 27 G needle. Tumor growth and animal weight were measured twice per week. Tumor size was measured by caliper and the volume was estimated using the following formula: 0.52×(length×width^2). When tumor sizes reached 150-250 mm^3, animals were randomized into groups (n=3) of similar average tumor volume and body weight.
Animals were injected intravenously with In-111-labeled compounds (single bolus, 22.3-31.2 MBq, ˜1 nmol ligand, injection volume: 100 μL) in the lateral tail vein using a 29 G syringe.
CT was performed with helical scan, 300 ms exposure, reconstruction resolution of 250 μm. SPECT was performed with multi-pinhole scan and a 30 s frame time. For the quantification of the radioactivity uptake, regions of interests (ROIs) were drawn over the tumor, kidney, liver, and heart (estimate of blood) identified on the images. Uptake was expressed as percent of injected dose per gram tissue (% ID/g).

mouse CAIX = biological target: T1, mouse CAIX (Mus musculus, UniProt Q8VHB5); test: Radioligand saturation binding on CHO-msCAIX; conditions: CHO-msCAIX, single experiment
T1 construct: host or cells: CHO-VGT / CHO cells
T1 sequence (Q8VHB5 32-437): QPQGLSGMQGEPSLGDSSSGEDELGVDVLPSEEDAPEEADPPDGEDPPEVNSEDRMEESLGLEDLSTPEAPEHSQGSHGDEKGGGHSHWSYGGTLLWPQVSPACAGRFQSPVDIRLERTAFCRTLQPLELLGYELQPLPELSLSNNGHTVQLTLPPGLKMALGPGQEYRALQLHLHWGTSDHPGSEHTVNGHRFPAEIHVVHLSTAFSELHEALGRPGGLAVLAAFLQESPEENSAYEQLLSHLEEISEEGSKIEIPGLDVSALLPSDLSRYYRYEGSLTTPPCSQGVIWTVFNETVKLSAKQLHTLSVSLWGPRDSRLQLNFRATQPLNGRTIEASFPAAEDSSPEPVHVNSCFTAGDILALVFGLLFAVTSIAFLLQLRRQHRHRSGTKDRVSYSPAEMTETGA
Protocol: (§1) After attainment of equilibrium, the cells were harvested, and the bound fraction of the compounds was measured. The resulting saturation binding data were analyzed using Graph Pad Prism 8.3.
(§2) CHO cells transfected with human, dog, and mouse CAIX (CHO-huCA9 T04J-1/20 K1, CHO-dogCA9 T05J-9/20 K4, CHO-murCA9 T05J-3/20 K4) were obtained from InSCREENex (Germany).
(§3) A molar excess of 3BP-3565 was used as a blocking peptide to assess non-specific binding in autoradiographic studies. 3BP-3565 binds with a similar affinity to CAIX and blocks binding sites of test compounds. For the blocking solution, a 10 mM stock solution of 3BP-3565 was prepared by dissolution in DMSO.
(§4) CHO cells were maintained in Ham's medium supplemented with 10% fetal bovine serum, 2 mM L-glutamine, 100 U/mL Penicillin and 0.1 mg/mL streptomycin under standard cell culture conditions. The cells were grown in uncoated cell culture flasks (150 cm^2, Biochrom) to subconfluence and then split 1:2-1:3. Approximately 24 hours before the assay, cells were detached by incubation with Accutase and carefully tapping the flasks. Detached cells were resuspended in medium and collected by centrifugation (300 g, 5 min, RT). Cell pellets were resuspended in cell culture medium and counted using a particle counter (CASY Model TT, Scharfe Systems, Germany). Cell concentrations were adjusted to 3×10^5 mL^−1, and 1.000 μL per well of the suspension were dispensed into poly-D-lysine-coated flat-clear-bottom 24 well plates.
(§5) Compound radiolabeling was performed as follows. […] Then, 25 mg/mL methionine in 1 M sodium acetate buffer pH 5 was added at a final concentration of 0.1 M sodium acetate. Subsequently, the mixture was heated to 80° C. for 25 min, followed by cooling for 5 minutes. Finally, 20 μL of 200 mg/mL ascorbic acid solution, 2.5 μL of 5 mg/mL DTPA and 2.5 μL of 5% TWEEN-20 per 100 μL reaction mixture were added, resulting in the concentrated study solution. For quality control, an aliquot of the labeling solution was diluted 1:40 with 0.1% TWEEN-20 in 0.1 M sodium acetate buffer pH 5. Five microliters of the diluted labeling solution were injected onto a Poroshell SB-C18 2.1×50 mm, 2.7 μm column. HPLC analysis was performed as follows: Gradient A: H2O, 0.1% TFA, Gradient B: Acetonitrile (MeCN), gradient from 5% B to 70% B within 15 min, flow rate of 0.5 mL/min; detector: NaI, DAD 215 nm. The peak eluting with the dead volume represents free radionuclide, the peak eluting with the ligand-specific retention time as determined with a non-labeled sample represents the radiolabeled compound.
The radioligand saturation binding on CHO-msCAIX was determined as follows. […] Their associated radioactivity was counted using a gamma counter and normalized to the measured protein concentration of each well. […]

[4] = dog, in vivo
human CAIX = human CAIX (Homo sapiens, UniProt Q16790); test: Radioligand saturation binding and equilibration on CHO-huCAIX; design: host or cells: CHO-VGT / CHO cells
Protocol: as §1, §2, §3, §4, §5
The assessment of the time needed until attainment of equilibration on CHO-huCAIX and CHO-dgCAIX was performed as follows. The 10 mM 3BP-3565 stock solution was diluted with assay medium (Ham's medium without additives) to prepare an 8-μM blocking working solution. The radiolabeling mixtures were diluted with assay medium to prepare 160 nM radioligand working solutions. Subsequently, 1.6 and 3.2 nM radioligand dilutions were prepared by diluting the radioligand working solutions 1:100 and 1:50, respectively, with assay medium. Approximately 24 hours after re-seeding (3×10^5 mL^−1 cells per well), the medium was aspirated, and the cells were washed once with assay medium (700 μL). To determine total binding, 700 μL of binding medium and 100 μL of the radioligand dilutions were added to the wells in triplicates.
To determine non-specific binding, 600 μL of binding medium, 100 μL of the […] 3BP-3565 blocking solution and 100 μL of the radioligand dilutions were added to the wells in triplicates. The plates were incubated for 1 h, 3 h, 6 h, and 8 h at 37° C. under standard cell culture conditions (5% CO2). At the end of the incubation time, the plates were placed on ice while aspirating the radioligand solutions. Subsequently, the cells were washed with ice-cold PBS (0.5 mL, 1 mL, 1 mL). […]

[5] = In vivo efficacy, biodistribution and tolerability of 225Ac-DPI-4452 in HT-29 xenograft mouse model; design: species or system NMRI nude mice; conditions: female, NMRI nude, mouse, iv, total radioactivity, HT-29 model, 15 kBq, 4 hours after dosing
[6] = tested on: HT-29 (CRC) human cancer cell line xenograft; test: as above; design: species or system NMRI nude mice; conditions: HT-29 model
[7] = In vivo efficacy, biodistribution and tolerability of 225Ac-DPI-4452 in SK-RC-52 xenograft mouse model; design: species or system NMRI nude mice; conditions: female, NMRI nude, mouse, iv, total radioactivity, SK-RC-52 model, 15 kBq, 4 hours after dosing
[8] = tested on: SK-RC-52 (ccRCC) human cancer cell line xenograft; test: as above; design: species or system NMRI nude mice; conditions: SK-RC-52 model
[9] = colon, small intestine and stomach
[10] = kidney, read-out: kidney uptake

SMILES: CC(C)C[C@@H]1NC(=O)[C@H](Cc2cccc(NC(=O)CCCS(N)(=O)=O)c2)NC(=O)[C@H](CC(=O)O)NC(=O)[C@H]2CCCN2C(=O)[C@H](CCC(=O)O)NC(=O)[C@@H](NC(=O)[C@H](CCC(N)=O)NC(=O)CN2CCN(C(=O)CN3CCN(CC(=O)O)CCN(CC(=O)O)CCN(CC(=O)O)CC3)CC2)CSCc2cccc(c2)CSC[C@@H](C(N)=O)NC(=O)[C@H](CO)NC(=O)[C@H](Cc2c[nH]c3ccccc23)NC(=O)[C@H]([C@@H](C)O)NC1=O (natLu complex, metal not drawn) [3BP-4555]
- % intact compound remaining (incubation time) [1]: >95%
- % intact compound remaining after 24 h incubation [2]: >95%

SMILES: CC(C)C[C@@H]1NC(=O)[C@H](Cc2ccc(NC(=O)CCS(N)(=O)=O)cc2)NC(=O)[C@H](CC(=O)O)NC(=O)[C@H]2CCCN2C(=O)[C@H](CCC(=O)O)NC(=O)[C@@H](NC(=O)[C@H](CCC(N)=O)NC(=O)CN2CCN(CC(=O)O)CCN(CC(=O)O)CCN(CC(=O)O)CC2)CSCc2cccc(c2)CSC[C@@H](C(N)=O)NC(=O)[C@H](CO)NC(=O)[C@H](Cc2c[nH]c3ccccc23)NC(=O)[C@H]([C@@H](C)O)NC1=O [[^111In]In-DPI-4501, metal not drawn]
- tissue uptake [3]: 7 %ID/g
- Mean pKd ± SD (mouse CAIX): 7.9
- Kd (mouse CAIX; read-out: pKd (converted)): 12.6 nM
- half-life [4]: 68.9 min
- half-life ([4]; iv): 5.88 min
- koff (human CAIX; CHO-huCAIX): 0.00012 s⁻¹
- Kd (human CAIX; CHO-huCAIX, first independent experiment, read-out: pKd (converted)): 0.158 nM
- Kd (human CAIX; CHO-huCAIX, read-out: Mean pKd ± SD (converted)): 0.251 nM
- Kd (human CAIX; CHO-huCAIX, second independent experiment, read-out: pKd (converted)): 0.398 nM
- Kd (human CAIX; human CAIX expressed in CHO cells, 8 h at 37°C, read-out: pKd (converted)): ≤ 1 nM

SMILES: CC(C)C[C@@H]1NC(=O)[C@H](Cc2cccc(NC(=O)CCCS(N)(=O)=O)c2)NC(=O)[C@H](CC(=O)O)NC(=O)[C@H]2CCCN2C(=O)[C@H](CCC(=O)O)NC(=O)[C@@H](NC(=O)[C@H](CCC(N)=O)NC(=O)CN2CCN(C(=O)CN3CCN(CC(=O)O)CCN(CC(=O)O)CCN(CC(=O)O)CC3)CC2)CSCc2cccc(c2)CSC[C@@H](C(N)=O)NC(=O)[C@H](CO)NC(=O)[C@H](Cc2c[nH]c3ccccc23)NC(=O)[C@H]([C@@H](C)O)NC1=O [^225Ac-DPI-4452, metal not drawn]
- tissue uptake at 4 h ([5]; HT-29 tumor, ex vivo gamma counter, read-out: tumor uptake): 11.3 ± 1.3 %ID/g
- tissue uptake at 4 h [5, 9]: < 1.1 %ID/g
- tissue uptake at 4 h [5, 10]: 7.9 ± 1.3 %ID/g
- creatinine values versus vehicle ([6]; 135 kBq, day 14): slightly elevated
- tolerability of treatment ([6]; single 15, 45 or 135 kBq i.v.): well tolerated
- tissue uptake at 4 h ([7]; SK-RC-52 tumor, ex vivo gamma counter, read-out: tumor uptake): 39.1 ± 1.6 %ID/g
- tissue uptake at 4 h [7, 9]: < 1.1 %ID/g
- tissue uptake at 4 h [7, 10]: 4.9 ± 0.2 %ID/g
- creatinine values versus vehicle ([8]; 135 kBq, day 14): slightly elevated
- tolerability of treatment ([8]; single 15, 45 or 135 kBq i.v.): well tolerated
